Assay results: patent US20030124023A1, “Method of sterilizing heart valves” (priority 2001, published 2003)
Blank lines part the entries; values can stand above or below the molecule they belong to.

Tests used:
[1] = physchem
Protocol: A. Preparation of Stabilizer Solutions:
The 0.5 M solution was not soluble; therefore an additional 2 ml of PPG was added.
An additional 1 ml PPG was added and further water bath sonicated.
The 0.5M solution was soluble after a 20-30 minute water bath sonication.
Very soluble after 10 minute water bath sonication.

[2] = Solubility of coumaric acid in DMSO/water (50% DMSO); type: physicochemical
Protocol: All stabilizers were prepared so that the final concentration of DMSO was 50%. Dissolve 34.7 mg in 106 μl DMSO, pH ≈3.0 138 μl H2O was added.

[3] = system: porcine AV heart valve cusps; assay: Example 3: HPLC analysis of frozen gamma irradiated AV heart valve cusps; settings: 30 kGy, 1.584 kGy/hr, −20° C.
Protocol: In this experiment, frozen porcine AV heart valves soaked in various solvents were gamma irradiated to a total dose of 30 kGy at 1.584 kGy/hr at −20° C. 5. Added 1.0 ml of the following to two of each of two tubes: dPBS, 50% DMSO and 50% DMSO with 200 mM sodium ascorbate (2M sodium ascorbate stock was diluted as follows: 400 μl (2M)+1.6 ml water+2ml 100% DMSO). 6. Incubated tubes at 4° C. with nutating for ˜46 hours. 8. All vials were frozen on dry ice. 9. Frozen samples were then irradiated at −20° C. at a rate of 1.584 kGy/hr to a total dose of 30 kGy.

[4] = system: porcine heart valve cusps; assay: Example 2: quantification of collagen crosslinks (pyd) by HPLC after gamma irradiation
Protocol: In this experiment, the effects of gamma irradiation were determined on porcine heart valve cusps in the presence of 50% DMSO and, optionally, a stabilizer, and in the presence of polypropylene glycol 400 (PPG400). 1.6 ml of a solution (stabilizer mixture or PPG400) was added to each sample and then the sample was incubated at 4° C. for 2.5 days. Valves and 1 ml of the solution in which they were incubated were then transferred into 2 ml irradiation vials. Each sample was irradiated with gamma irradiation at a rate of 1.723 kGy/hr at 3.6° C. to a total dose of 25 kGy. 3. Weighed the samples, transferred them to hydrolysis vials and then added 6 N HCl at a volume of 20 mg tissue/ml HCl: 5. Samples were hydrolyzed at 110° C. for approximately 23 hours. 13. Eluted crosslinks with 5 ml 2 N HCl into a low binding tube. 50 ml 2 N HCl:8.6 ml concentrated HCl adjusted to a volume of 50 ml with Nerl H2O. 1. Prepared 100-200 μl 1× solution in 1% heptafluorobutyric acid (HFBA). 2. Injected 50 μl on C18 HPLC column equilibrated with mobile phase. 3. Spectrofluorometer was set for excitation at 295 nm and emission at 395 nm. 4. Calculated the integrated fluorescence of Internal-Pyridinoline (Int-Pyd) per 1 μl of 1× solution of Int-Pyd.

solubility of stabilizer stock in PPG [1]: not 100% soluble
solubility in DMSO after addition of H2O ([2]; 34.7 mg in 106 μl DMSO, pH ≈3.0, 138 μl H2O added): precipitated out of solution
solubility in DMSO/H2O after pH adjustment ([2]; pH adjusted to 7.5 with 1 N NaOH): went back into solution
SMILES: O=C(O)/C=C/c1ccc(O)cc1 [Coumaric Acid]

SMILES: C[S+](C)[O-] [DMSO, dimethylsulfoxide]
HPLC profile, irradiated versus not irradiated ([3]; 20% DMSO): reproduced these peaks more faithfully
HPLC profile, irradiated versus not irradiated ([3]; 50% DMSO): slightly more effective
Area of Pyd Peak ([4]; 0 kGy (not irradiated)): 87880
Area of Pyd Peak ([4]; 25 kGy, 1.723 kGy/hr, 3.6° C.): 49030
HPLC profile, irradiated versus not irradiated ([4]; 25 kGy, 1.723 kGy/hr, 3.6° C., DMSO at 50%): less effective

solubility of stabilizer stock in PPG [1]: not soluble
solubility ([1]; 25 °C, organic solvent or mixture, thermodynamic from solid): ≥ 125 mM
SMILES: Cc1c(C)c2c(c(C)c1O)CCC(C)(C(=O)O)O2 (centres unmarked) [Trolox C, 6-hydroxy-2,5,7,8-tetramethylchroma-2 carboxylic acid]

solubility of stabilizer stock in PPG [1]: soluble
SMILES: CCCOC(=O)c1cc(O)c(O)c(O)c1 [n-Propyl Gallate]
